Test results as given in publication PMC12314051, “Design, antiproliferative potency, and in silico studies of novel 5-methylfuran-3-yl)thio)-3-phenylquinazolin-4(3H)-one based derivatives as potential EGFR inhibitors” (Scientific Reports, 2025).
Like-named read-outs stand apart in the source and are kept apart here.

Tests used:
[1] = system: MCF-7 cells; assay: MTT cytotoxicity assay, MCF-7; type: cell-based; conditions: Homo sapiens
Experimental: (§1) Following the published protocol[75]–[77], the cytotoxic effects of the newly synthesized quinazolinones 1–10 were assessed in vitro using the MTT test method on human liver HepG-2, breast MCF-7, colorectal HCT-116 cancer cell lines, and normal diploid cell line WI-38. There were further details in the supplemetary file.
(§2) The cell lines were obtained from Karolinska Center, Department of Oncology and Pathology, Karolinska Institute and Hospital, Stockholm, Sweden, as follows: human liver HepG-2, breast MCF-7, and colorectal HCT-116 cancer cell lines and human diploid cell line WI-38. Exponentially, cells were placed in 10^4 cells/ well for 24 h, and then fresh medium containing different concentrations of the tested sample. two-fold serial dilution of the tested sample was added using a multichannel pipette. Moreover, all cells were cultivated at 37 °C, 5% CO2 and 95% humidity. Also, incubation of control cells occurred at 37 °C. However, after incubation for 24 h different concentrations of the sample (100, 50, 25, 12.5, 6.25, 3.125, and 1.56 µM) were added, and continued the incubation for 48 h, then, add the crystal violet solution of 1% to each well for 0.5 h to examine viable cells. Rinse the wells using water until no stain. After that, add 30% glacial acetic acid to all wells with shaking plates on a Microplate reader (TECAN, Inc.) to measure the absorbance, using a test wavelength of 490 nm. Besides, compare the treated samples with the control cell. The cytotoxicity was estimated by IC50 in (μM), the concentration that inhibits 50% of growth of cancer cell.

[2] = system: HCT-116 cells; assay: MTT cytotoxicity assay, HCT-116; type: cell-based; conditions: Homo sapiens
Experimental: as §1, §2

[3] = system: HepG-2 cells; assay: MTT cytotoxicity assay, HepG-2; type: cell-based; conditions: Homo sapiens
Experimental: as §1, §2

[4] = system: WI-38 cells; assay: MTT cytotoxicity assay, normal WI-38; type: cell-based; conditions: Homo sapiens
Experimental: . […]. Furthermore, the MTT assay was employed to examine the safety profiles of the cytotoxic activity against the normal human diploid cell line WI-38 (Table 1). […]. They could therefore be considered safe chemotherapeutic agents.
as §1, §2

[5] = system: HepG-2, HCT-116 and MCF-7 cell lines; assay: MTT cytotoxicity, all screened cancer cell lines together (SAR summary); type: cell-based, human
Experimental: […]. In addition, replacement of acetyl group in 2 with pyrazoline moiety with free N-1 in 7 or bound to thiazole in 9, yielded weak activity.
as §1, §2

[6] = MCF7, MCF-7, MTT assay, read-out: IC50 (mean ± SD)
[7] = HCT-116, MTT assay, read-out: IC50 (mean ± SD)
[8] = HepG2, HepG-2, MTT assay, read-out: IC50 (mean ± SD)
[9] = normal WI-38, MTT assay, read-out: IC50 (mean ± SD)
[10] = HepG-2, HCT-116 and MCF-7 cell lines

| SMILES | IC50 [1, 6] | IC50 [2, 7] | IC50 [3, 8] | IC50 [4, 9] | cytotoxic activity in words (SAR study) [5, 10] | cytotoxic activity in words (SAR study) [5] | IC50 ([1]; MCF7, read-out: IC50 (mean ± SD)) | IC50 ([2]; HCT-116, read-out: IC50 (mean ± SD)) | IC50 ([3]; HepG2, read-out: IC50 (mean ± SD)) | IC50 ([4]; WI-38, read-out: IC50 (mean ± SD)) |
| --- | --- | --- | --- | --- | --- | --- | --- | --- | --- | --- |
| Cc1occ(Sc2nc3ccccc3c(=O)n2-c2ccccc2)c1C(=O)C=Cc1ccco1 [Compound 3d, 2-{{{4-[3-(Furan-2-yl)acryloyl]-5-methylfuran-3-yl}thio}}-3-phenylquinazolin-4(3H)-one] | 16 ± 1.3 µM | 25.9 ± 1.7 µM | 18.9 ± 1.4 µM | > 100 µM | – | – | – | – | – | – |
| Cc1occ(Sc2nc3ccccc3c(=O)n2-c2ccccc2)c1C(=O)C=Cc1ccc(Cl)cc1 [Compound 3a, 2-{{{4-[3-(4-Chlorophenyl)acryloyl]-5-methylfuran-3-yl}thio}}-3-phenylquinazolin-4(3H)-one] | 37.9 ± 2.2 µM | 34.1 ± 2.1 µM | 21.8 ± 1.6 µM | 68.7 ± 3.6 µM | – | – | – | – | – | – |
| COc1ccc(-c2cc(-c3c(Sc4nc5ccccc5c(=O)n4-c4ccccc4)coc3C)ncc2C#N)cc1 [Compound 5, 4-(4-Methoxyphenyl)-6-{2-methyl-4-[(4-oxo-3-phenyl-3,4-dihydroquinazolin-2-yl)thio]furan-3-yl}nicotinonitrile] | 50 ± 2.8 µM | 66.3 ± 3.5 µM | 38.5 ± 2.3 µM | 17.8 ± 1.4 µM | Weak activity | – | – | – | – | – |
| COc1ccc(C=CC(=O)c2c(Sc3nc4ccccc4c(=O)n3-c3ccccc3)coc2C)cc1 [Compound 3c, 2-{{{4-[3-(4-Methoxyphenyl)acryloyl]-5-methylfuran-3-yl}thio}}-3-phenylquinazolin-4(3H)-one] | 23.4 ± 1.6 µM | > 100 µM | – | 53.2 ± 2.9 µM | – | – | – | – | – | – |
| Cc1occ(Sc2nc3ccccc3c(=O)n2-c2ccccc2)c1C1=NN(c2nc(Cl)cs2)C(c2ccc(Cl)cc2)C1 (stereo not shown) [Compound 9, 2-{{{4-[5-(4-Chlorophenyl)-1-(4-chlorothiazol-2-yl)-4,5-dihydro-1H-pyrazol-3-yl]-5-methylfuran-3-yl}thio}}-3-phenylquinazolin-4(3H)-one] | 58 ± 3.4 µM | 74.7 ± 3.9 µM | 44 ± 2.5 µM | 39.8 ± 2.4 µM | weak activity | – | – | – | – | – |
| Cc1occ(Sc2nc3ccccc3c(=O)n2-c2ccccc2)c1C1=NN(C(N)=S)C(c2ccc(F)cc2)C1 (stereo not shown) [Compound 8b] | 76.1 ± 3.9 µM | 93.4 ± 4.7 µM | 81.5 ± 4.2 µM | 26.9 ± 1.8 µM | Weak activity | – | – | – | – | – |
| Cc1occ(Sc2nc3ccccc3c(=O)n2-c2ccccc2)c1C1CC(c2ccc(F)cc2)Nc2ccccc2N1 (stereo not shown) [Compound 6a, 2-{{{4-[4-(4-Fluorophenyl)-2,3,4,5-tetrahydro-1H-benzo[b][1,4]diazepin-2-yl]-5-methylfuran-3-yl}thio}}-3-phenylquinazolin-4(3H)-one] | 33.6 ± 2 µM | 52.5 ± 3.1 µM | 35.8 ± 2.1 µM | 85.1 ± 4.2 µM | Weak activity | – | – | – | – | – |
| CCOC(=O)C1C(=O)C=C(c2c(Sc3nc4ccccc4c(=O)n3-c3ccccc3)coc2C)CC1c1ccc(F)cc1 (stereo not shown) [Compound 4, Ethyl 4′-fluoro-5-{2-methyl-4-[(4-oxo-3-phenyl-3,4-dihydroquinazolin-2-yl)thio]furan-3-yl}-3-oxo-1,2,3,6-tetrahydro-[1,1′-biphenyl]-2-carboxylate] | 62.1 ± 3.5 µM | 87.8 ± 4.3 µM | 64.9 ± 3.5 µM | 44.9 ± 2.7 µM | Weak activity | – | – | – | – | – |
| CC(=O)c1c(Sc2nc3ccccc3c(=O)n2-c2ccccc2)coc1C [Compound 2, 2-[(4-Acetyl-5-methylfuran-3-yl)thio]-3-phenylquinazolin-4(3H)-one] | 54.9 ± 3.2 µM | 78.7 ± 3.7 µM | 47.8 ± 2.8 µM | 36.9 ± 2.4 µM | – | Weak activity | – | – | – | – |
| C#Cc1cccc(Nc2ncnc3cc(OCCOC)c(OCCOC)cc23)c1 [Erlotinib, reference compound] | – | – | – | – | – | – | 4.17 ± 0.2 µM | 5.23 ± 0.3 µM | 4.5 ± 0.2 µM | 6.72 ± 0.5 µM |
| Cc1occ(Sc2nc3ccccc3c(=O)n2-c2ccccc2)c1C(=O)C=Cc1ccc(F)cc1 [Compound 3b, 2-{{{4-[3-(4-Fluorophenyl)acryloyl]-5-methylfuran-3-yl}thio}}-3-phenylquinazolin-4(3H)-one] | 71.1 ± 3.8 µM | 83.3 ± 4.1 µM | 56 ± 3.2 µM | 28.8 ± 1.9 µM | – | – | – | – | – | – |
